Experimental data from the supplement of paper PMC10307832.

Assays:
Assay in all cases: relative viability (nuclei count vs DMSO), 5 days (fraction); higher = more cells survive
A549 = system: A549
Method in brief: (§1)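 Lung cancer cell lines were pin-tool dosed in 1536-well plates on the day after seeding, with either a lone drug or a fixed anchor-drug dose plus five library-drug doses (not always all listed) in √10 steps. Nuclei were counted on 4× images after 5 days. Relative viability is the ratio of treated-well to vehicle-well nuclei counts, with each value a median of duplicate plates.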

NCI-H2009 = system: NCI-H2009
Method in brief: as §1

NCI-H661 = system: NCI-H661
Method in brief: as §1

NCI-H1703 = system: NCI-H1703
Method in brief: as §1

EBC-1 = system: EBC-1
Method in brief: as §1

IA-LM = system: IA-LM
Method in brief: as §1

NCI-H460 = system: NCI-H460
Method in brief: as §1

Calu-6 = system: Calu-6
Method in brief: as §1

NCI-H1299 = system: NCI-H1299
Method in brief: as §1

HCC-78 = system: HCC-78
Method in brief: as §1

O=c1cc(N2CCOCC2)oc2c(-c3cccc4c3sc3ccccc34)cccc12 + C[C@@H](Oc1cc(-c2cnn(C3CCNCC3)c2)cnc1N)c1c(Cl)ccc(F)c1Cl [Crizotinib] (partner 1 µM)
relative viability (A549; first compound 0.01 µM): 0.771 | relative viability (A549; first compound 0.03162 µM): 0.769 | relative viability (A549; first compound 0.1 µM): 0.746 | relative viability (A549; first compound 0.3162 µM): 0.828 | relative viability (A549; first compound 1 µM): 0.659 | relative viability (NCI-H2009; first compound 0.01 µM): 1.03 | relative viability (NCI-H2009; first compound 0.03162 µM): 0.921 | relative viability (NCI-H2009; first compound 0.1 µM): 1.02 | relative viability (NCI-H2009; first compound 0.3162 µM): 0.995 | relative viability (NCI-H2009; first compound 1 µM): 0.935 | relative viability (NCI-H661; first compound 0.01 µM): 1.06 | relative viability (NCI-H661; first compound 0.03162 µM): 0.983 | relative viability (NCI-H661; first compound 0.1 µM): 0.927 | relative viability (NCI-H661; first compound 0.3162 µM): 0.817 | relative viability (NCI-H661; first compound 1 µM): 0.92 | relative viability (NCI-H1703; first compound 0.01 µM): 0.769 | relative viability (NCI-H1703; first compound 0.03162 µM): 0.604 | relative viability (NCI-H1703; first compound 0.1 µM): 0.918 | relative viability (NCI-H1703; first compound 0.3162 µM): 0.584 | relative viability (NCI-H1703; first compound 1 µM): 0.591 | relative viability (EBC-1; first compound 0.01 µM): 0.208 | relative viability (EBC-1; first compound 0.03162 µM): 0.227 | relative viability (EBC-1; first compound 0.1 µM): 0.207 | relative viability (EBC-1; first compound 0.3162 µM): 0.221 | relative viability (EBC-1; first compound 1 µM): 0.204 | relative viability (IA-LM; first compound 0.01 µM): 0.965 | relative viability (IA-LM; first compound 0.03162 µM): 0.694 | relative viability (IA-LM; first compound 0.1 µM): 0.683 | relative viability (IA-LM; first compound 0.3162 µM): 0.732 | relative viability (IA-LM; first compound 1 µM): 0.621 | relative viability (NCI-H460; first compound 0.01 µM): 0.822 | relative viability (NCI-H460; first compound 0.03162 µM): 0.99 | relative viability (NCI-H460; first compound 0.1 µM): 0.988 | relative viability (NCI-H460; first compound 0.3162 µM): 1.1 | relative viability (NCI-H460; first compound 1 µM): 0.922 | relative viability (Calu-6; first compound 0.01 µM): 0.858 | relative viability (Calu-6; first compound 0.03162 µM): 0.857 | relative viability (Calu-6; first compound 0.1 µM): 0.793 | relative viability (Calu-6; first compound 0.3162 µM): 0.759 | relative viability (Calu-6; first compound 1 µM): 0.777 | relative viability (NCI-H1299; first compound 0.01 µM): 0.949 | relative viability (NCI-H1299; first compound 0.03162 µM): 0.954 | relative viability (NCI-H1299; first compound 0.1 µM): 0.973 | relative viability (NCI-H1299; first compound 0.3162 µM): 0.637 | relative viability (NCI-H1299; first compound 1 µM): 0.923 | relative viability (HCC-78; first compound 0.01 µM): 0.342 | relative viability (HCC-78; first compound 0.03162 µM): 0.33 | relative viability (HCC-78; first compound 0.1 µM): 0.331 | relative viability (HCC-78; first compound 0.3162 µM): 0.326 | relative viability (HCC-78; first compound 1 µM): 0.353
